From US8637670B2, “Imidazo [4,5-C]quinoline derivatives and their use in the treatment of tumors and/or inflammation” (Piramal Enterprises Limited, priority 2009, dated 2014)

Legend:
PI3Kα kinase = molecular target: T1, PI3Kα kinase (Homo sapiens, UniProt P42336); assay: PI3Kα assay (32P incorporation into phosphatidylinositol, TLC densitometry); assay type: biochemical; details: At 100 nM
T1 construct: purchased Millipore, USA
Protocol: The assay was designed as in the reference, Cell, 2006, 125, 733-47 (Supplemental Data), the disclosure of which is incorporated by reference for the teaching of the assay.
The kinase reaction was carried out in a 25 μL volume in a 1.5 mL microcentrifuge tube. The reaction mixture consisted of kinase buffer (10 mM Hepes, pH 7.5, 50 mM MgCl2), 20 ng PI3Kα kinase (Millipore, USA), 12.5 μg phosphatidylinositol (PI), 10 μM ATP and 1 μCi ^32γ P dATP. Compounds of Example 1-40 were added at concentrations (stock solution was prepared in DMSO and subsequent dilutions were made in kinase buffer) as mentioned in the table. The reaction mixture was incubated at 30° C. for 20 minutes and was terminated by adding 1:1 mixture of MeOH and chloroform. The tube contents were mixed on a vortex mixer and centrifuged at 10000 rpm for 2 minutes. 10 μL of the organic (lower) phase was spotted on to a TLC plate (silica, mobile phase: n-propanol and 2 M glacial acetic acid in 65:35 ratio). The plates were dried and exposed to an X-ray film. The bands appearing as a result of ^32γ P incorporation in PI were quantitated using the QuantityOne (BioRad, USA) densitometry program. PI-103 (Calbiochem, USA) was used as a standard.

PC3 = assay: Cytotoxicity, propidium iodide assay, PC3; assay type: cell-based; details: Homo sapiens, PC-3; Prostate, PC3, 48 hours treatment; read-out: IC50, C2a (PC3)
Protocol: (§1) The assay was designed as in the reference, Anticancer Drugs, 2002, 13, 1-8, the disclosure of which is incorporated by reference for the teaching of the assay.
(§2) Cells from cell lines as mentioned in the table given below were seeded at a density of 3000 cells/well in a white opaque 96-well plate. Following incubation at 37° C./5% CO2 for a period of 18-24 hours, the cells were treated with various concentrations (stock solution was prepared in DMSO and subsequent dilutions were made in media as per ATCC guidelines) of the compounds of Example 1-40 was for a period of 48 hours. At the end of treatment, the spent culture medium was discarded, the cells were washed with 1×PBS and 200 μl of 7 μg/ml propidium iodide was added to each well. The plates were frozen at −70° C. for at least 24 hours. For analysis, the plates were brought to RT, allowed to thaw and were read in PoleStar fluorimeter with the fluorescence setting. The percentage of viable cells in the non-treated set of wells was considered to be 100 and the percentage viability following treatment was calculated accordingly. IC50 values were calculated from graphs plotted using these percentages. Table 4 depicts the IC50 values of compounds of Example 1-40 in individual cell lines.
(§3) The abbreviations for the Cell Lines as used in Table 4 are: […]

IL-6 = assay: Human monocyte assay, LPS-stimulated IL-6 (ELISA); assay type: cell-based; details: human monocytes, 1 μg/ml LPS, 5 hours
Protocol: The assay was designed as in the reference, Physiol. Res., 2003, 52, 593-598, the disclosure of which is incorporated by reference for the teaching of the assay.
Peripheral blood mononuclear cells (hPBMC) were harvested from human blood and suspended in RPMI 1640 culture medium containing 10% FCS, 100 U/mL penicillin and […] streptomycin (assay medium). Monocytes in the hPBMCs were counted using a Coulter Counter following which the cells were resuspended at 2×10^5 monocytes/mL. A cell suspension containing 2×10^4 monocytes was aliquoted per well of a 96-well plate. Subsequently, the hPBMCs were incubated for 4-5 hours at 37° C. under 5% CO2 (During the incubation, the monocytes adhered to the bottom of 96-well plastic culture plate). Following the incubation, the non-adherent lymphocytes were washed with assay medium and the adherent monocytes re-fed with assay medium. After a 48-hour incubation period (37° C., 5% CO2), monocytes were pretreated with various concentrations of compounds of Example 1-40 (prepared in DMSO) or vehicle (0.5% DMSO) for 30 minutes and stimulated with 1 μg/ml LPS (Escherchia coli 0111:B4, Sigma Chemical Co., St. Louis, Mo.). The incubation was continued for 5 hours at 37° C., 5% CO2. Supernatants were harvested, assayed for IL-6 and TNF-α by ELISA as described by the manufacturer (BD Biosciences, USA). Dexamethasone (10 μM) was used as standard for this assay. The 50% inhibitory concentration (IC50) values were calculated by a nonlinear regression method. In all experiments, a parallel plate was run to ascertain the toxicity of compounds of Example 1-40. The toxicity was determined using the MTS assay as described in Am. J. Physiol. Cell Physiol., 2003, 285, C813-C822.

A2780 = assay: Cytotoxicity, propidium iodide assay, A2780; assay type: cell-based; details: Homo sapiens; Ovarian, A2780, 48 hours treatment; read-out: IC50, C3a (A2780)
Protocol: as §1, §2, §3

U 373 = assay: Cytotoxicity, propidium iodide assay, U 373; assay type: cell-based; details: Homo sapiens, U373 MG; Glioblastoma, U 373, 48 hours treatment; read-out: IC50, C7a (U 373)
Protocol: as §1, §2, §3

OVCAR 3 = assay: Cytotoxicity, propidium iodide assay, OVCAR 3; assay type: cell-based; details: Homo sapiens; Ovarian, OVCAR 3, 48 hours treatment; read-out: IC50, C3b (OVCAR 3)
Protocol: as §1, §2, §3

H460 = assay: Cytotoxicity, propidium iodide assay, H460; assay type: cell-based; details: Homo sapiens, NCI-H460; Lung, H460, 48 hours treatment; read-out: IC50, C1b (H460)
Protocol: as §1, §2, §3

A549 = assay: Cytotoxicity, propidium iodide assay, A549; assay type: cell-based; details: Homo sapiens; Lung, A549, 48 hours treatment; read-out: IC50, C1a (A549)
Protocol: as §1, §2, §3

HCT116 = assay: Cytotoxicity, propidium iodide assay, HCT116; assay type: cell-based; details: Homo sapiens, HCT-116; Colon, HCT116, 48 hours treatment; read-out: IC50, C4a (HCT116)
Protocol: as §1, §2, §3

PANC 1 = assay: Cytotoxicity, propidium iodide assay, PANC 1; assay type: cell-based; details: Homo sapiens; Pancreatic, PANC 1, 48 hours treatment; read-out: IC50, C5a (PANC 1)
Protocol: as §1, §2, §3

T1 sequence (P42336 whole entry): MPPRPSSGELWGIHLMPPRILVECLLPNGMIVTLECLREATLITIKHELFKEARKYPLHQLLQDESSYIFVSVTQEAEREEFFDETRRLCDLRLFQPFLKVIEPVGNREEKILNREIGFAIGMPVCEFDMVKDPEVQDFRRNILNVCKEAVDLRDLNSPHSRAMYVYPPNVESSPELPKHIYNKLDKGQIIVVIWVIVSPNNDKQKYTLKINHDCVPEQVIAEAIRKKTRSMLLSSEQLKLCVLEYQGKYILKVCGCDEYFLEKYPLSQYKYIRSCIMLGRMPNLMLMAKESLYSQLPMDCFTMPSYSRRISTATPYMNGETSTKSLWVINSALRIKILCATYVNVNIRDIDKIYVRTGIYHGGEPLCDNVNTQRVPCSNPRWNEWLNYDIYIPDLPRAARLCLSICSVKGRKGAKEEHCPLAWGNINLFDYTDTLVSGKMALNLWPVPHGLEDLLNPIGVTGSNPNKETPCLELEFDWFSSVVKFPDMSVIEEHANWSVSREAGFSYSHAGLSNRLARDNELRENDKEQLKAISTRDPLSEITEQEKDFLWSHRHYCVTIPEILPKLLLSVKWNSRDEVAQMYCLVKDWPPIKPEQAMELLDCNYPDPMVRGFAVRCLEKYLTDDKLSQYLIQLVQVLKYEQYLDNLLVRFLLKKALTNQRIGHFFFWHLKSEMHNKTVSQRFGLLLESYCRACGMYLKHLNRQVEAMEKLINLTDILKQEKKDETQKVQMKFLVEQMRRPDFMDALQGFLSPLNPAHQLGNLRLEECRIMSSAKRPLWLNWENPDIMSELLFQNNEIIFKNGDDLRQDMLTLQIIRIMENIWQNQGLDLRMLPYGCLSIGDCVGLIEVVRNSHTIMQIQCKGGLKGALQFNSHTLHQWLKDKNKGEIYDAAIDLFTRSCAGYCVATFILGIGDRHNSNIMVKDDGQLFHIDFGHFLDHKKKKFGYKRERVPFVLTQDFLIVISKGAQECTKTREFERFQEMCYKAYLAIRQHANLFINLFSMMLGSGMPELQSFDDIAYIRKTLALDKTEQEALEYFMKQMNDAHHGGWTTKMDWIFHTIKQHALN
T1 sequence (P27986 whole entry partner): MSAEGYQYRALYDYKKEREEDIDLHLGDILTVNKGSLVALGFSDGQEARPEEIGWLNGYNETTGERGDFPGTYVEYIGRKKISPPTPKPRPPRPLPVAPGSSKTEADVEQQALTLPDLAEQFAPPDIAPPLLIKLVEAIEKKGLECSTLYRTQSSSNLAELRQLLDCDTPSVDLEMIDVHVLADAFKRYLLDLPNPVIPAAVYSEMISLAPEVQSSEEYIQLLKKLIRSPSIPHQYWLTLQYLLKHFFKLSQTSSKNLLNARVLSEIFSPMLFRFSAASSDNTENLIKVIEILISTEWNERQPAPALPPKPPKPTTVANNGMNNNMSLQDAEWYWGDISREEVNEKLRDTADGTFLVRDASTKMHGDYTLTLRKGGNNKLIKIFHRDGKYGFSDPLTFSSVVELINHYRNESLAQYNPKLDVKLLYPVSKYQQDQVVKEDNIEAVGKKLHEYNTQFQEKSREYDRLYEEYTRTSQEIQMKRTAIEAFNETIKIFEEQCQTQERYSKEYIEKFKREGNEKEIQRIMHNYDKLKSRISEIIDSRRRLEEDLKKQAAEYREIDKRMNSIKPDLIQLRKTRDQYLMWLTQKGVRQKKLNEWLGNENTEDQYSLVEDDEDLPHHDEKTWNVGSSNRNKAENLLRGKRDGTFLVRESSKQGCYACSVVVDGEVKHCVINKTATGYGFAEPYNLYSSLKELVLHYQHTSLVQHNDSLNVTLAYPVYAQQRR

Row | Structure (SMILES) | IC50 (IL-6) [µM] | IC50 (A2780) [µM] | IC50 (A549) [µM] | IC50 (HCT116) [µM] | other results
1 | CC(C)(C#N)c1ccc(-n2c(=O)n(S(=O)(=O)c3ccccc3)c3cnc4ccc(Br)cc4c32)cc1 [Example 7, 2-(4-(8-Bromo-2-oxo-3-(phenylsulfonyl)-2,3-dihydro-1H-imidazo[4,5-c]quinolin-1-yl)phenyl)-2-methylpropanenitrile] | – | – | – | – | inhibition at 0.1 µM (PI3Kα kinase): 10 to 50%
2 | CC(C)(C#N)c1ccc(-n2c(=O)n(S(=O)(=O)c3ccc(OC(F)(F)F)cc3)c3cnc4ccc(Br)cc4c32)cc1 [Example 1, 2-(4-(8-Bromo-2-oxo-3-(4-(trifluoromethoxy)phenylsulfonyl)-2,3-dihydro-1H-imidazo[4,5-c]quinolin-1-yl)phenyl)-2-methylpropanenitrile] | 10 to 30 | ≤ 1 | – | – | IC50 (PC3): 1 to 3 µM; IC50 (U 373): > 3 µM; IC50 (OVCAR 3): 1 to 3 µM; IC50 (H460): 1 to 3 µM
3 | CC(C)(C#N)c1ccc(-n2c(=O)n(S(=O)(=O)c3cccs3)c3cnc4ccc(Br)cc4c32)cc1 [Example 9, 2-(4-(8-Bromo-2-oxo-3-(thiophen-2-ylsulfonyl)-2,3-dihydro-1H-imidazo[4,5-c]quinolin-1-yl)phenyl)-2-methylpropanenitrile] | 10 to 30 | ≤ 1 | 1 to 3 | > 3 | IC50 (PANC 1): > 3 µM
4 | Cc1ccc2ncc3c(c2c1)n(-c1ccc(C(C)(C)C#N)cc1)c(=O)n3S(=O)(=O)c1cc([N+](=O)[O-])ccc1C [Example 23, 2-Methyl-2-(4-(8-methyl-3-(2-methyl-5-nitrophenylsulfonyl)-2-oxo-2,3-dihydro-1H-imidazo[4,5-c]quinolin-1-yl)phenyl)propanenitrile] | – | – | > 3 | > 3 | –
5 | Cc1ccc2ncc3c(c2c1)n(-c1ccc(C(C)(C)C#N)cc1)c(=O)n3S(=O)(=O)c1cccc2cccnc12 [Example 24, 2-Methyl-2-(4-(8-methyl-2-oxo-3-(quinolin-8-ylsulfonyl)-2,3-dihydro-1H-imidazo[4,5-c]quinolin-1-yl)phenyl)propanenitrile] | – | > 3 | – | > 3 | IC50 (PC3): > 3 µM; IC50 (H460): > 3 µM
6 | Cc1ccc(S(=O)(=O)n2c(=O)n(-c3ccc(C(C)(C)C#N)cc3)c3c4cc(Br)ccc4ncc32)cc1 [Example 8, 2-(4-(8-Bromo-2-oxo-3-tosyl-2,3-dihydro-1H-imidazo[4,5-c]quinolin-1-yl)phenyl)-2-methylpropanenitrile] | – | – | – | – | inhibition at 0.1 µM (PI3Kα kinase): 10 to 50%
7 | CC(C)(C#N)c1ccc(-n2c(=O)n(S(=O)(=O)c3ccccc3C#N)c3cnc4ccc(Cl)cc4c32)cc1 [Example 20, 2-(8-Chloro-1-(4-(2-cyanopropan-2-yl)phenyl)-2-oxo-1H-imidazo[4,5-c]quinolin-3(2H)-ylsulfonyl)benzonitrile] | – | – | – | – | inhibition at 0.1 µM (PI3Kα kinase): 10 to 50%
8 | COc1ccc(NC(=O)n2c(=O)n(-c3ccc(C(C)(C)C#N)cc3)c3c4cc(Br)ccc4ncc32)cc1 [Example 31, 8-Bromo-1-(4-(2-cyanopropan-2-yl)phenyl)-N-(4-methoxyphenyl)-2-oxo-1H-imidazo[4,5-c]quinoline-3(2H)-carboxamide] | – | > 3 | 1 to 3 | > 3 | IC50 (PANC 1): > 3 µM

Continued, in another order:

Row | IC50 (IL-6) [µM] | Structure (SMILES) | IC50 (A2780) [µM] | IC50 (A549) [µM] | IC50 (HCT116) [µM] | other results
9 | 1 to 10 | CC(C)(C#N)c1ccc(-n2c(=O)n(S(=O)(=O)c3cccc(Br)c3)c3cnc4ccc(Br)cc4c32)cc1 [Example 15, 2-(4-(8-Bromo-3-(3-bromophenylsulfonyl)-2-oxo-2,3-dihydro-1H-imidazo[4,5-c]quinolin-1-yl)phenyl)-2-methylpropanenitrile] | > 3 | > 3 | 1 to 3 | IC50 (PANC 1): > 3 µM
10 | 1 to 10 | Cc1cccc(S(=O)(=O)n2c(=O)n(-c3ccc(C(C)(C)C#N)cc3)c3c4cc(C)ccc4ncc32)c1 [Example 21, 2-Methyl-2-(4-(8-methyl-2-oxo-3-(m-tolylsulfonyl)-2,3-dihydro-1H-imidazo[4,5-c]quinolin-1-yl)phenyl)propanenitrile] | – | > 3 | > 3 | –
11 | > 30 | CC(C)(C#N)c1ccc(-n2c(=O)n(S(=O)(=O)c3cccc(F)c3)c3cnc4ccc(Br)cc4c32)cc1 [Example 10, 2-(4-(8-Bromo-3-(3-fluorophenylsulfonyl)-2-oxo-2,3-dihydro-1H-imidazo[4,5-c]quinolin-1-yl)phenyl)-2-methylpropanenitrile] | 1 to 3 | 1 to 3 | 1 to 3 | IC50 (PANC 1): > 3 µM
12 | > 30 | CC(C)(C#N)c1ccc(-n2c(=O)n(C(=O)NCc3ccccc3)c3cnc4ccc(Br)cc4c32)cc1 [Example 32, N-benzyl-8-bromo-1-(4-(2-cyanopropan-2-yl)phenyl)-2-oxo-1H-imidazo[4,5-c]quinoline-3(2H)-carboxamide] | – | – | – | inhibition at 0.1 µM (PI3Kα kinase): 10 to 50%
13 | > 30 | CC(=O)c1ccc(S(=O)(=O)n2c(=O)n(-c3ccc(C(C)(C)C#N)cc3)c3c4cc(Br)ccc4ncc32)cc1 [Example 12, 2-(4-(3-(4-Acetylphenylsulfonyl)-8-bromo-2-oxo-2,3-dihydro-1H-imidazo[4,5-c]quinolin-1-yl)phenyl)-2-methylpropanenitrile] | 1 to 3 | 1 to 3 | > 3 | IC50 (PC3): > 3 µM; IC50 (H460): 1 to 3 µM
14 | 10 to 30 | Cc1ccc2ncc3c(c2c1)n(-c1ccc(C(C)(C)C#N)cc1)c(=O)n3S(=O)(=O)c1cccc(F)c1 [Example 22, 2-(4-(3-(3-Fluorophenylsulfonyl)-8-methyl-2-oxo-2,3-dihydro-1H-imidazo[4,5-c]quinolin-1-yl)phenyl)-2-methylpropanenitrile] | – | > 3 | > 3 | –
15 | 1 to 10 | COc1cccc(S(=O)(=O)n2c(=O)n(-c3ccc(C(C)(C)C#N)cc3)c3c4cc(Br)ccc4ncc32)c1 [Example 14, 2-(4-(8-Bromo-3-(3-methoxyphenylsulfonyl)-2-oxo-2,3-dihydro-1H-imidazo[4,5-c]quinolin-1-yl)phenyl)-2-methylpropanenitrile] | – | – | – | –
16 | ≤ 1 | C/C=C/C(=O)n1c(=O)n(-c2ccc(C(C)(C)C#N)cc2)c2c3cc(C)ccc3ncc21 [Example 39, (E)-2-(4-(3-But-2-enoyl-8-methyl-2-oxo-2,3-dihydro-1H-imidazo[4,5-c]quinolin-1-yl)phenyl)-2-methylpropanenitrile] | – | > 3 | > 3 | –
